Test results from patent US7754852B2, “Natriuretic polypeptides” (Mayo Foundation for Medical Education and Research, priority 2007, dated 2010).
Where a SMILES comes first, the peptide text is derived from it. Bridges are numbered along the chain shown (N, C = ends). Where no end group is shown, it is not given here.

Columns and labels:
normal anesthetized dogs [1] = assay: Cardiorenal function in normal anesthetized dogs, consecutive i.v. infusions of 10, 50 and 100 ng/kg/minute; format: in vivo, dog
Method: Cardiorenal function was assessed in three normal anesthetized dogs. […] Tubular Na^+ reabsorption and GFR were assessed by clearance of Li^+ and inulin, respectively. Neurohormones were quantified by radioimmunoassays. Data were analyzed by repeated measures ANOVA followed by Dunnett's test.

normal anesthetized dogs [2] = assay: Hemoconcentrating effects (hematocrit) of i.v. infusion at 14 pmol/kg/minute in normal anesthetized dogs; format: in vivo, dog
Method: Three human NPs (BNP, CNP, URO, and CU-NP were studied to evaluate their effects on vascular permeability as manifested by an increase in hematocrit. Normal anesthetized dogs received i.v. infusions of BNP (n=7), CNP (n=6), URO (n=5), or CU-NP (n=6) at 14 pmol/kg/minute. Blood was collected in EDTA tubes on ice and centrifuged. Data are reported for base-line and at 60 minutes of infusion. In addition to increasing hematocrit (Table 5), CU-NP reduced PCW pressure in vivo (baseline 6±0.9 mmHg, 60 minutes 3±0.9 mmHg; P<0.05). Thus, hemoconcentrating effects of CU-NP may contribute to its cardiac-unloading actions in vivo.

[3] = tested on: human aortic endothelial cells (HAEC); assay: cGMP response in HAEC in the absence or presence of NPR-B antibody; format: cell-based; settings: 10^−6 M, 10 minutes
Method: (§1) cGMP responses to the 3 peptides also were assessed in glomeruli isolated from canine kidneys upon harvest, in the presence or absence of an NPR-A antagonist, […] (1 μM), or an NPR-B antagonist, […] (1 μM), or both antagonists added sequentially (A71915 followed by […], 1 μM final concentration for both). To confirm the involvement of NPR-B in the cGMP response to CU-NP, additional experiments were conducted using human aortic endothelial cells (HAEC). Cyclic GMP response was determined by incubating CU-NP (10^-6 M) for 10 minutes in the absence or presence of an antibody to the ligand-binding domain of NPR-B. In vitro data (mean±SEM) were analyzed by one-way ANOVA followed by Bonferroni's post-test. Statistical significance was defined as P<0.05. GraphPad Prism 4 (GraphPad Software, San Diego, Calif.) was used for statistical analyses.

[4] = tested on: isolated canine glomeruli; assay: cGMP stimulation in isolated canine glomeruli; format: cell-based; settings: 10^−5 M
Method: Experiments were conducted to determine whether CU-NP directly stimulates cGMP in isolated glomeruli, and to compare the cGMP-activating actions of CU-NP with CNP, URO, and CNP-C, which consisted of the full-length 22-AA of CNP with a duplicate of the N-terminus fused in the C-terminal position. Glomeruli were isolated upon harvest of normal canine kidneys. CU-NP, CNP, URO, and CNP-C (10^−5 M) were incubated with glomeruli vs. control. Cyclic GMP was measured by RIA, with correction for protein levels. CU-NP and URO elicited greater cGMP responses than respective controls (P<0.01), but without difference between groups. CU-NP and URO stimulated greater cGMP responses vs. CNP and vs. CNP-C (P<0.001).

normal anesthetized dogs [5] = assay: Renal, cardiovascular and neurohumoral effects of i.v. infusion at 50 ng/kg/minute for 75 minutes in normal anesthetized dogs; format: in vivo, dog
Method: CU-NP or CNP polypeptide was intravenously infused into normal anesthetized dogs at 50 ng/kg/minute for 75 minutes. Blood and urine samples were collected pre-infusion (pre-I), at 30 and 60 minutes of infusion, and post-infusion (post-I). Inulin clearance was used for assessment of glomerular filtration rate (GFR). The lithium clearance technique was used for measurement of proximal and distal fractional reabsorption of Na^+ (PFRNa and DFRNa, respectively). Comparisons at the latter three time points versus pre-I were made. Student's t-test was used when comparing results for two time points, whereas repeated measures ANOVA was used to compare four time points.

normal anesthetized dogs [6] = assay: In vivo renal perfusion pressure, i.v. infusion at 14.14 pmol/kg/minute for 75 minutes; set-up: species or system dog; settings: RPP estimated by MAP−RAP
Method: Studies were conducted to determine the in vivo actions of CNP, CU-NP and URO on renal perfusion pressure (RPP, as estimated by MAP-RAP), as RPP is a key determinant of renal function. Given the GFR-enhancing action of CU-NP, in vitro studies also were done to test the hypothesis that CU-NP (unlike CNP) also activates NPR-A, a potent renal acting NP receptor. Equimolar doses of CU-NP, human CNP, or human URO were intravenously infused at 14.14 pmol/kg/minute into 17 normal anesthetized dogs for 75 minutes. RPP was assessed at baseline and at 60 minutes of infusion. Data are expressed as mean±SEM. Clearances were measured from the 16th to the 45th minute and from the 46th to the 75th minute following initiation of peptide infusion. Within each group, 2-tailed paired t-test was used to compare RPP at 60 minutes of peptide infusion vs. baseline. Comparisons between groups were made by two-way ANOVA followed by Bonferroni post-test.

[7] = tested on: isolated canine glomeruli; assay: cGMP response in isolated canine glomeruli with or without NPR-A antagonist and NPR-B antagonist; format: cell-based; settings: 10^−5 M, no antagonist
Method: as §1

[8] = 60 min of i.v. infusion at 14 pmol/kg/minute
[9] = 30 minutes of infusion, 50 ng/kg/minute i.v.
[10] = 60 minutes of infusion, 50 ng/kg/minute i.v.
[11] = 60 minutes of i.v. infusion at 14.14 pmol/kg/minute

CC[C@H](C)[C@@H]1NC(=O)[C@H](CCCNC(=N)N)NC(=O)[C@H](CC(=O)O)NC(=O)[C@H](CC(C)C)NC(=O)[C@H](CCCCN)NC(=O)[C@H](CC(C)C)NC(=O)CNC(=O)[C@H](Cc2ccccc2)NC(=O)[C@@H](NC(=O)[C@H](CO)NC(=O)[C@H](CO)NC(=O)[C@H](CCCNC(=N)N)NC(=O)[C@H](CCCNC(=N)N)NC(=O)[C@H](CC(C)C)NC(=O)[C@H](CO)NC(=O)[C@H](CCCNC(=N)N)NC(=O)[C@@H]2CCCN2C(=O)[C@H](C)NC(=O)[C@@H](N)[C@@H](C)O)CSSC[C@@H](C(=O)N[C@@H](CC(N)=O)C(=O)N[C@@H](CO)C(=O)N[C@@H](Cc2ccccc2)C(=O)N[C@@H](CCCNC(=N)N)C(=O)N[C@@H](Cc2ccc(O)cc2)C(=O)O)NC(=O)CNC(=O)[C@H](CC(C)C)NC(=O)CNC(=O)[C@H](CO)NC(=O)[C@H](CCSC)NC(=O)[C@H](CO)NC(=O)CNC1=O [CU-NP] (H-TAPRSLRRSSCFGLKLDRIGSMSGLGCNSFRY-OH; disulfide 11-27)
QTc interval (normal anesthetized dogs [1]; end of infusion at 100 ng/kg/minute): 329 ± 15 ms | QTc interval (normal anesthetized dogs [1]; pre-infusion): 323 ± 6 ms

BNP: human NP (natriuretic peptide) BNP
Hematocrit (mean ± SEM) (normal anesthetized dogs [2]; [8]): 40 ± 2 % | Hematocrit (mean ± SEM) (normal anesthetized dogs [2]; Baseline): 36 ± 1%

CNP: human CNP, mature natriuretic polypeptide of 22 amino acids
cGMP ([3]; in the presence of the NPR-B antibody (1:100)): 0.08 ± 0.01 pmol/mL | cGMP ([3]; no antibody): 0.17 ± 0.04 pmol/mL | cGMP (mean ± SEM) [4]: 0.0019 ± 0.0005 fmol/µg | Hematocrit (mean ± SEM) (normal anesthetized dogs [2]; [8]): 37 ± 1% | Hematocrit (mean ± SEM) (normal anesthetized dogs [2]; Baseline): 36 ± 1% | DFRNa+ (normal anesthetized dogs [5]; [9]): 98 ± 0.8% | GFR (normal anesthetized dogs [5]; [9]): 42 ± 4 mL/min | Na^+ excretion (normal anesthetized dogs [5]; [9]): 56 ± 21 μEq/min | PFRNa+ (normal anesthetized dogs [5]; [9]): 67 ± 3% | Plasma cGMP (normal anesthetized dogs [5]; [9]): 11 ± 1 pmol/mL | Renal generation of cGMP (normal anesthetized dogs [5]; [9]): 452 ± 202 pmol/min | Urinary cGMP excretion (normal anesthetized dogs [5]; [9]): 1119 ± 102 pmol/min | Urine flow (normal anesthetized dogs [5]; [9]): 0.3 ± 0.06 mL/min | DFRNa+ (normal anesthetized dogs [5]; [10]): 98 ± 0.5% | GFR (normal anesthetized dogs [5]; [10]): 39 ± 3 mL/min | Na^+ excretion (normal anesthetized dogs [5]; [10]): 71 ± 8 μEq/min | PFRNa+ (normal anesthetized dogs [5]; [10]): 51 ± 7 % | Plasma cGMP (normal anesthetized dogs [5]; [10]): 12 ± 1 pmol/mL | Renal generation of cGMP (normal anesthetized dogs [5]; [10]): 603 ± 199 pmol/min | Urinary cGMP excretion (normal anesthetized dogs [5]; [10]): 1338 ± 81 pmol/min | Urine flow (normal anesthetized dogs [5]; [10]): 0.4 ± 0.02 mL/min | DFRNa+ (normal anesthetized dogs [5]; post-infusion): 99 ± 0.2% | GFR (normal anesthetized dogs [5]; post-infusion): 44 ± 3 mL/min | Na^+ excretion (normal anesthetized dogs [5]; post-infusion): 30 ± 8 μEq/min | PFRNa+ (normal anesthetized dogs [5]; post-infusion): 68 ± 3 % | Plasma cGMP (normal anesthetized dogs [5]; post-infusion): 12 ± 1 pmol/mL | Renal generation of cGMP (normal anesthetized dogs [5]; post-infusion): 582 ± 91 pmol/min | Urinary cGMP excretion (normal anesthetized dogs [5]; post-infusion): 1090 ± 76 pmol/min | Urine flow (normal anesthetized dogs [5]; post-infusion): 0.3 ± 0.04 mL/min | DFRNa+ (normal anesthetized dogs [5]; pre-infusion): 99 ± 0.5% | GFR (normal anesthetized dogs [5]; pre-infusion): 38 ± 4 mL/min | Na^+ excretion (normal anesthetized dogs [5]; pre-infusion): 16 ± 6 μEq/min | PFRNa+ (normal anesthetized dogs [5]; pre-infusion): 83 ± 3% | Plasma cGMP (normal anesthetized dogs [5]; pre-infusion): 8 ± 1 pmol/mL | Renal generation of cGMP (normal anesthetized dogs [5]; pre-infusion): 491 ± 65 pmol/min | Urinary cGMP excretion (normal anesthetized dogs [5]; pre-infusion): 830 ± 74 pmol/min | Urine flow (normal anesthetized dogs [5]; pre-infusion): 0.1 ± 0.02 mL/min | RPP (mean ± SEM) (normal anesthetized dogs [6]; [11]): 123 ± 8 mmHg | RPP (mean ± SEM) (normal anesthetized dogs [6]; Pre-I): 120 ± 4 mmHg

URO: human urodilatin, natriuretic polypeptide (TAPRSLRRSSCFGGRMDRIGAQSGLGCNSFRY; ends and bridges not checked; cysteine pairing not given here; UniProt P01160 120-151, looked up)
cGMP (mean ± SEM) [4]: 0.69 ± 0.07 fmol/µg | Hematocrit (mean ± SEM) (normal anesthetized dogs [2]; [8]): 40 ± 1 % | Hematocrit (mean ± SEM) (normal anesthetized dogs [2]; Baseline): 37 ± 1% | cGMP [7]: 0.54 ± 0.10 fmol/µg | RPP (mean ± SEM) (normal anesthetized dogs [6]; [11]): 119 ± 4 mmHg | RPP (mean ± SEM) (normal anesthetized dogs [6]; Pre-I): 127 ± 4 mmHg
